Key:
bedstraw = test: Test B pre/postemergence bedstraw; format: in vivo, Galium aparine; conditions: Preemergence; for Bedstraw plant response rating: scale 0 to 10, 0 is no effect, 10 is complete control
How it was run: (§1)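 Herbicidal effect was estimated by eye on a ten-point control scale after plants spent twelve to sixteen days in a greenhouse following soil or foliar treatment. Foliar sprays targeted plants at one to four leaves; all doses were formulated in a non-phytotoxic solvent with surfactant.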

blackgrass = test: Test B pre/postemergence blackgrass; format: in vivo, Alopecurus myosuroides
How it was run: as §1

surinam grass = test: Test B pre/postemergence surinam grass; format: in vivo, Brachiaria decumbens
How it was run: as §1

cocklebur = test: Test B pre/postemergence cocklebur; format: in vivo, Xanthium strumarium
How it was run: as §1

corn = test: Test B pre/postemergence corn; format: in vivo, Zea mays
How it was run: as §1

crabgrass = test: Test B pre/postemergence crabgrass; format: in vivo, Digitaria sanguinalis
How it was run: as §1

giant foxtail = test: Test B pre/postemergence giant foxtail; format: in vivo, Setaria faberii
How it was run: as §1

morningglory = test: Test B pre/postemergence morningglory; format: in vivo, Ipomoea hederacea
How it was run: as §1

pigweed = test: Test B pre/postemergence pigweed; format: in vivo, Amaranthus retroflexus
How it was run: as §1

rape = test: Test B pre/postemergence rape; format: in vivo, Brassica napus
How it was run: as §1

soybean = test: Test B pre/postemergence soybean; format: in vivo, Glycine max
How it was run: as §1

sugar beet = test: Test B pre/postemergence sugar beet; format: in vivo, Beta vulgaris
How it was run: as §1

velvetleaf = test: Test B pre/postemergence velvetleaf; format: in vivo, Abutilon theophrasti
How it was run: as §1

wheat = test: Test B pre/postemergence wheat; format: in vivo, Triticum aestivum
How it was run: as §1

wild oat = test: Test B pre/postemergence wild oat; format: in vivo, Avena fatua
How it was run: as §1

purple nutsedge = test: Test B pre/postemergence purple nutsedge; format: in vivo, Cyperus rotundus
How it was run: as §1

rice = test: Test B flood test rice; format: in vivo, Oryza sativa
How it was run: (§2)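 Each value is a visual injury score relative to controls, with 10 meaning complete control and 0 no effect. Evaluation took place twelve to sixteen days after the 2-leaf-stage plants were treated and kept in the greenhouse.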

smallflower flatsedge = test: Test B flood test smallflower flatsedge; format: in vivo, Cyperus difformis
How it was run: as §2

duck salad = test: Test B flood test duck salad; format: in vivo, Heteranthera limosa
How it was run: as §2

bamyardgrass = test: Test B flood test barnyardgrass; format: in vivo, Echinochloa crus-galli
How it was run: as §2

[1] = Postemergence, Rate 62 g/ha, scale of 0 to 10, 0 is no effect, 10 is complete control
[2] = Postemergence, Rate 125 g/ha, scale 0 to 10, 0 is no effect, 10 is complete control
[3] = Postemergence, Rate 250 g/ha, scale 0 to 10
[4] = Postemergence, Rate 500 g/ha, scale 0 to 10, 0 is no effect, 10 is complete control
[5] = Preemergence, Rate 62 g/ha, scale of 0 to 10 where 0 is no effect and 10 is complete control
[6] = Preemergence, Rate 125 g/ha, scale 0 to 10, 0 is no effect, 10 is complete control
[7] = Preemergence, Rate 250 g/ha, scale 0 to 10, 0 is no effect, 10 is complete control
[8] = Preemergence, Rate 500 g/ha, scale of 0 to 10 where 0 is no effect and 10 is complete control
[9] = Rate 62 g/ha, flood test species, Pre-emergence, visual evaluation after twelve to sixteen days
[10] = Rate 125 g/ha, under heading Pre-emergence, flood test species, visual evaluation after twelve to sixteen days
[11] = Rate 250 g/ha, Pre-emergence (flood test species), scale 0 to 10, 0 is no effect, 10 is complete control
[12] = Rate 500 g/ha, Pre-emergence section of Table B, 0 to 10 scale (0 no effect, 10 complete control)

CCc1nc(C)c(Cn2c(=O)on(C(=O)N(c3ccc(Cl)cc3)C(C)C)c2=O)s1 [Compound 499]
4: Plant response rating, Blackgrass (blackgrass; [4]) | Plant response rating, Cocklebur (cocklebur; [4]) | Cocklebur plant response rating (cocklebur; [8]) | Plant response rating, Crabgrass (crabgrass; [5])
6: Crabgrass plant response rating (crabgrass; [6]) | Plant response rating, Morningglory (morningglory; [4])
10: Giant foxtail plant response rating (giant foxtail; [8])
2: Blackgrass plant response rating (blackgrass; [3]) | B. signalgrass plant response rating (surinam grass; Preemergence, Rate 500 g/ha, scale 0 to 10, 0 is no effect, 10 is complete control) | Cocklebur plant response rating (cocklebur; [3]) | Plant response rating, Giant foxtail (giant foxtail; [4])
1: Blackgrass plant response rating (blackgrass; [8]) | Soybean plant response rating (soybean; [2])
8: Crabgrass plant response rating (crabgrass; [8])
3: Plant response rating, Giant foxtail (giant foxtail; [5]) | Morningglory plant response rating (morningglory; [1]) | Morningglory plant response rating (morningglory; [2]) | Plant response rating, Soybean (soybean; [4])
5: Giant foxtail plant response rating (giant foxtail; [6])
0: Plant response rating, Bedstraw (bedstraw; Rate 62 g/ha, scale of 0 to 10 where 0 is no effect and 10 is complete control) | Bedstraw plant response rating (bedstraw; Rate 125 g/ha) | Bedstraw plant response rating (bedstraw; Rate 250 g/ha) | Blackgrass plant response rating (blackgrass; [1]) | Blackgrass plant response rating (blackgrass; [2]) | Plant response rating, Blackgrass (blackgrass; [5]) | Blackgrass plant response rating (blackgrass; [6]) | Blackgrass plant response rating (blackgrass; [7]) | B. signalgrass plant response rating (surinam grass; [1]) | B. signalgrass plant response rating (surinam grass; [2]) | B. signalgrass plant response rating (surinam grass; Postemergence, Rate 250 g/ha, scale 0 to 10, 0 no effect, 10 complete control) | Plant response rating, B. signalgrass (surinam grass; [4]) | Plant response rating, B. signalgrass (surinam grass; [5]) | B. signalgrass plant response rating (surinam grass; [6]) | B. signalgrass plant response rating (surinam grass; [7]) | Cocklebur plant response rating (cocklebur; [1]) | Cocklebur plant response rating (cocklebur; [2]) | Cocklebur plant response rating (cocklebur; [6]) | Cocklebur plant response rating (cocklebur; [7]) | Corn plant response rating (corn; [1]) | Corn plant response rating (corn; [2]) | Corn plant response rating (corn; [3]) | Plant response rating, Corn (corn; [4]) | Plant response rating, Corn (corn; [5]) | Corn plant response rating (corn; [6]) | Corn plant response rating (corn; [8]) | Crabgrass plant response rating (crabgrass; [1]) | Crabgrass plant response rating (crabgrass; [2]) | Crabgrass plant response rating (crabgrass; [3]) | Plant response rating, Crabgrass (crabgrass; [4]) | Giant foxtail plant response rating (giant foxtail; [1]) | Giant foxtail plant response rating (giant foxtail; [2]) | Plant response rating, Morningglory (morningglory; [5]) | Morningglory plant response rating (morningglory; [6]) | Morningglory plant response rating (morningglory; [8]) | Redroot pigweed plant response rating (pigweed; [1]) | Redroot pigweed plant response rating (pigweed; [2]) | Plant response rating, Redroot pigweed (pigweed; [4]) | Plant response rating, Redroot pigweed (pigweed; [5]) | Redroot pigweed plant response rating (pigweed; [6]) | Redroot pigweed plant response rating (pigweed; [8]) | Rape plant response rating (rape; [1]) | Rape plant response rating (rape; [2]) | Plant response rating, Rape (rape; [4]) | Plant response rating, Rape (rape; [5]) | Rape plant response rating (rape; [6]) | Rape plant response rating (rape; [8]) | Soybean plant response rating (soybean; [1]) | Plant response rating, Soybean (soybean; [5]) | Soybean plant response rating (soybean; [6]) | Soybean plant response rating (soybean; [8]) | Sugarbeets plant response rating (sugar beet; [1]) | Sugarbeets plant response rating (sugar beet; [2]) | Plant response rating, Sugarbeets (sugar beet; [4]) | Plant response rating, Sugarbeets (sugar beet; [5]) | Sugarbeets plant response rating (sugar beet; [6]) | Sugarbeets plant response rating (sugar beet; [8]) | Velvetleaf plant response rating (velvetleaf; [1]) | Velvetleaf plant response rating (velvetleaf; [2]) | Plant response rating, Velvetleaf (velvetleaf; [4]) | Plant response rating, Velvetleaf (velvetleaf; [5]) | Velvetleaf plant response rating (velvetleaf; [6]) | Velvetleaf plant response rating (velvetleaf; [8]) | Wheat plant response rating (wheat; [1]) | Wheat plant response rating (wheat; [2]) | Plant response rating, Wheat (wheat; [4]) | Plant response rating, Wheat (wheat; [5]) | Wheat plant response rating (wheat; [6]) | Wheat plant response rating (wheat; [8]) | Wild oats plant response rating (wild oat; [1]) | Wild oats plant response rating (wild oat; [2]) | Plant response rating, Wild oats (wild oat; [4]) | Plant response rating, Wild oats (wild oat; [5]) | Wild oats plant response rating (wild oat; [6]) | Wild oats plant response rating (wild oat; [8]) | Nutsedge plant response rating (purple nutsedge; [1]) | Nutsedge plant response rating (purple nutsedge; [2]) | Plant response rating, Nutsedge (purple nutsedge; [4]) | Nutsedge plant response rating (purple nutsedge; [6]) | Nutsedge plant response rating (purple nutsedge; [8]) | Plant response rating, Rice (0 to 10 scale, 0 is no effect, 10 is complete control) (rice; [9]) | Rice plant response rating (0 to 10 scale, 0 is no effect, 10 is complete control) (rice; [10]) | Rice plant response rating (rice; [11]) | Rice plant response rating (rice; [12]) | Plant response rating, S. Flatsedge (0 to 10 scale, 0 is no effect, 10 is complete control) (smallflower flatsedge; [9]) | S. Flatsedge plant response rating (0 to 10 scale, 0 is no effect, 10 is complete control) (smallflower flatsedge; [10]) | S. Flatsedge plant response rating (smallflower flatsedge; [11]) | S. Flatsedge plant response rating (smallflower flatsedge; [12]) | Plant response rating, Ducksalad (0 to 10 scale, 0 is no effect, 10 is complete control) (duck salad; [9]) | Ducksalad plant response rating (0 to 10 scale, 0 is no effect, 10 is complete control) (duck salad; [10]) | Ducksalad plant response rating (duck salad; [11]) | Ducksalad plant response rating (duck salad; [12]) | Plant response rating, Barnyardgrass (0 to 10 scale, 0 is no effect, 10 is complete control) (bamyardgrass; [9]) | Barnyardgrass plant response rating (0 to 10 scale, 0 is no effect, 10 is complete control) (bamyardgrass; [10]) | Barnyardgrass plant response rating (bamyardgrass; [11]) | Barnyardgrass plant response rating (bamyardgrass; [12])
